Assay results as given in patent US6737383B1, “Herbicidal oxadiazolidines” (priority 1999, dated 2004).

Legend:
velvetleaf = assay: Test B pre/postemergence velvetleaf; type: in vivo, Abutilon theophrasti; settings: for Plant response rating, Velvetleaf: Postemergence
Method in brief: (§1)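 Herbicidal effect was estimated by eye on a ten-point control scale after plants spent twelve to sixteen days in a greenhouse following soil or foliar treatment. Foliar sprays targeted plants at one to four leaves; all doses were formulated in a non-phytotoxic solvent with surfactant.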

morningglory = assay: Test B pre/postemergence morningglory; type: in vivo, Ipomoea hederacea
Method in brief: as §1

blackgrass = assay: Test B pre/postemergence blackgrass; type: in vivo, Alopecurus myosuroides
Method in brief: as §1

sugar beet = assay: Test B pre/postemergence sugar beet; type: in vivo, Beta vulgaris; settings: for Plant response rating, Sugarbeets: Postemergence
Method in brief: as §1

giant foxtail = assay: Test B pre/postemergence giant foxtail; type: in vivo, Setaria faberii
Method in brief: as §1

wheat = assay: Test B pre/postemergence wheat; type: in vivo, Triticum aestivum; settings: for Plant response rating, Wheat: Postemergence
Method in brief: as §1

pigweed = assay: Test B pre/postemergence pigweed; type: in vivo, Amaranthus retroflexus; settings: for Plant response rating, Redroot pigweed: Postemergence; for Plant response rating, Redroot pigweed / Redroot pigweed plant response rating: scale of 0 to 10 where 0 is no effect and 10 is complete control
Method in brief: as §1

purple nutsedge = assay: Test B pre/postemergence purple nutsedge; type: in vivo, Cyperus rotundus
Method in brief: as §1

corn = assay: Test B pre/postemergence corn; type: in vivo, Zea mays
Method in brief: as §1

rape = assay: Test B pre/postemergence rape; type: in vivo, Brassica napus
Method in brief: as §1

cocklebur = assay: Test B pre/postemergence cocklebur; type: in vivo, Xanthium strumarium
Method in brief: as §1

soybean = assay: Test B pre/postemergence soybean; type: in vivo, Glycine max; settings: for Plant response rating, Soybean: Postemergence
Method in brief: as §1

bedstraw = assay: Test B pre/postemergence bedstraw; type: in vivo, Galium aparine
Method in brief: as §1

wild oat = assay: Test B pre/postemergence wild oat; type: in vivo, Avena fatua; settings: for Plant response rating, Wild oats: Postemergence
Method in brief: as §1

crabgrass = assay: Test B pre/postemergence crabgrass; type: in vivo, Digitaria sanguinalis
Method in brief: as §1

surinam grass = assay: Test B pre/postemergence surinam grass; type: in vivo, Brachiaria decumbens
Method in brief: as §1

[1] = Rate 125 g/ha, scale of 0 to 10 where 0 is no effect and 10 is complete control
[2] = Rate 500 g/ha, scale of 0 to 10 where 0 is no effect and 10 is complete control
[3] = Preemergence, Rate 62 g/ha, scale 0 to 10 (0 no effect, 10 complete control)
[4] = Preemergence, Rate 125 g/ha, scale of 0 to 10 where 0 is no effect and 10 is complete control
[5] = Preemergence, Rate 500 g/ha, scale of 0 to 10 where 0 is no effect and 10 is complete control
[6] = Rate 250 g/ha, scale of 0 to 10 where 0 is no effect and 10 is complete control
[7] = Postemergence, Rate 62 g/ha, scale of 0 to 10, 0 is no effect, 10 is complete control
[8] = Postemergence, Rate 125 g/ha, scale of 0 to 10 where 0 is no effect and 10 is complete control
[9] = Postemergence, Rate 500 g/ha, scale of 0 to 10 where 0 is no effect and 10 is complete control
[10] = Rate 250 g/ha, Postemergence, scale of 0 to 10 where 0 is no effect and 10 is complete control

Compound: CC(C)N(C(=O)n1oc(=O)n(CCCCF)c1=O)c1ccccc1 [Compound 581]
- Plant response rating, Velvetleaf (velvetleaf; [1]): 4
- Plant response rating, Velvetleaf (velvetleaf; [2]): 6
- Velvetleaf plant response rating (velvetleaf; [3]): 5
- Velvetleaf plant response rating (velvetleaf; [4]): 5
- Velvetleaf plant response rating (0 to 10 scale) (velvetleaf; Preemergence, Rate 250 g/ha): 5
- Velvetleaf plant response rating (velvetleaf; [5]): 10
- Plant response rating, Velvetleaf (velvetleaf; [6]): 6
- Morningglory plant response rating (morningglory; [7]): 4
- Plant response rating, Morningglory (morningglory; [8]): 8
- Plant response rating, Morningglory (morningglory; [9]): 10
- Morningglory plant response rating (morningglory; [3]): 0
- Morningglory plant response rating (morningglory; [4]): 2
- Morningglory plant response rating (0 to 10 scale) (morningglory; Preemergence, Rate 250 g/ha): 4
- Morningglory plant response rating (morningglory; [5]): 6
- Plant response rating, Morningglory (morningglory; [10]): 7
- Blackgrass plant response rating (blackgrass; [7]): 4
- Plant response rating, Blackgrass (blackgrass; [8]): 4
- Plant response rating, Blackgrass (blackgrass; [9]): 4
- Blackgrass plant response rating (blackgrass; [3]): 0
- Blackgrass plant response rating (blackgrass; [4]): 0
- Blackgrass plant response rating (0 to 10 scale) (blackgrass; Preemergence, Rate 250 g/ha): 0
- Blackgrass plant response rating (blackgrass; [5]): 7
- Plant response rating, Blackgrass (blackgrass; [10]): 4
- Plant response rating, Sugarbeets (sugar beet; [1]): 5
- Plant response rating, Sugarbeets (sugar beet; [2]): 8
- Sugarbeets plant response rating (sugar beet; [3]): 0
- Sugarbeets plant response rating (sugar beet; [4]): 0
- Sugarbeets plant response rating (0 to 10 scale) (sugar beet; Preemergence, Rate 250 g/ha): 0
- Sugarbeets plant response rating (sugar beet; [5]): 9
- Plant response rating, Sugarbeets (sugar beet; [6]): 7
- Giant foxtail plant response rating (giant foxtail; [7]): 7
- Plant response rating, Giant foxtail (giant foxtail; [8]): 8
- Plant response rating, Giant foxtail (giant foxtail; [9]): 9
- Giant foxtail plant response rating (giant foxtail; [3]): 4
- Giant foxtail plant response rating (giant foxtail; [4]): 10
- Giant foxtail plant response rating (0 to 10 scale) (giant foxtail; Preemergence, Rate 250 g/ha): 9
- Giant foxtail plant response rating (giant foxtail; [5]): 10
- Plant response rating, Giant foxtail (giant foxtail; [10]): 8
- Plant response rating, Wheat (wheat; [1]): 4
- Plant response rating, Wheat (wheat; [2]): 4
- Wheat plant response rating (wheat; [3]): 0
- Wheat plant response rating (wheat; [4]): 0
- Wheat plant response rating (0 to 10 scale) (wheat; Preemergence, Rate 250 g/ha): 2
- Wheat plant response rating (wheat; [5]): 5
- Plant response rating, Wheat (wheat; [6]): 4
- Plant response rating, Redroot pigweed (pigweed; Rate 125 g/ha): 8
- Plant response rating, Redroot pigweed (pigweed; Rate 500 g/ha): 9
- Redroot pigweed plant response rating (pigweed; Preemergence, Rate 125 g/ha): 5
- Redroot pigweed plant response rating (0 to 10 scale) (pigweed; Preemergence, Rate 250 g/ha): 9
- Redroot pigweed plant response rating (pigweed; Preemergence, Rate 500 g/ha): 10
- Plant response rating, Redroot pigweed (pigweed; Rate 250 g/ha): 8
- Nutsedge plant response rating (purple nutsedge; [7]): 0
- Nutsedge plant response rating (purple nutsedge; [3]): 0
- Nutsedge plant response rating (purple nutsedge; [4]): 0
- Nutsedge plant response rating (0 to 10 scale) (purple nutsedge; Preemergence, Rate 250 g/ha): 4
- Nutsedge plant response rating (purple nutsedge; [5]): 8
- Corn plant response rating (corn; [7]): 2
- Plant response rating, Corn (corn; [8]): 4
- Plant response rating, Corn (corn; [9]): 6
- Corn plant response rating (corn; [3]): 0
- Corn plant response rating (corn; [4]): 2
- Corn plant response rating (0 to 10 scale) (corn; Preemergence, Rate 250 g/ha): 7
- Corn plant response rating (corn; [5]): 9
- Plant response rating, Corn (corn; [10]): 5
- Rape plant response rating (rape; [7]): 0
- Plant response rating, Rape (rape; [8]): 7
- Plant response rating, Rape (rape; [9]): 7
- Rape plant response rating (rape; [3]): 0
- Rape plant response rating (rape; [4]): 0
- Rape plant response rating (0 to 10 scale) (rape; Preemergence, Rate 250 g/ha): 2
- Rape plant response rating (rape; [5]): 7
- Plant response rating, Rape (rape; [10]): 7
- Cocklebur plant response rating (cocklebur; [7]): 2
- Plant response rating, Cocklebur (cocklebur; [9]): 3
- Cocklebur plant response rating (cocklebur; [3]): 0
- Cocklebur plant response rating (cocklebur; [4]): 0
- Cocklebur plant response rating (0 to 10 scale) (cocklebur; Preemergence, Rate 250 g/ha): 0
- Cocklebur plant response rating (cocklebur; [5]): 0
- Plant response rating, Cocklebur (cocklebur; [10]): 3
- Plant response rating, Soybean (soybean; [1]): 4
- Plant response rating, Soybean (soybean; [2]): 5
- Soybean plant response rating (soybean; [3]): 0
- Soybean plant response rating (soybean; [4]): 0
- Soybean plant response rating (0 to 10 scale) (soybean; Preemergence, Rate 250 g/ha): 5
- Soybean plant response rating (soybean; [5]): 7
- Plant response rating, Soybean (soybean; [6]): 4
- Bedstraw plant response rating (bedstraw; [7]): 0
- Plant response rating, Bedstraw (bedstraw; [8]): 8
- Plant response rating, Bedstraw (bedstraw; [9]): 9
- Bedstraw plant response rating (bedstraw; [3]): 8
- Bedstraw plant response rating (bedstraw; [4]): 9
- Bedstraw plant response rating (0 to 10 scale) (bedstraw; Preemergence, Rate 250 g/ha): 7
- Bedstraw plant response rating (bedstraw; [5]): 9
- Plant response rating, Wild oats (wild oat; [1]): 5
- Plant response rating, Wild oats (wild oat; [2]): 5
- Wild oats plant response rating (wild oat; [3]): 0
- Wild oats plant response rating (wild oat; [4]): 0
- Wild oats plant response rating (0 to 10 scale) (wild oat; Preemergence, Rate 250 g/ha): 0
- Wild oats plant response rating (wild oat; [5]): 8
- Plant response rating, Wild oats (wild oat; [6]): 5
- Crabgrass plant response rating (crabgrass; [7]): 3
- Plant response rating, Crabgrass (crabgrass; [8]): 7
- Plant response rating, Crabgrass (crabgrass; [9]): 9
- Crabgrass plant response rating (crabgrass; [3]): 4
- Crabgrass plant response rating (crabgrass; [4]): 9
- Crabgrass plant response rating (0 to 10 scale) (crabgrass; Preemergence, Rate 250 g/ha): 8
- Crabgrass plant response rating (crabgrass; [5]): 9
- Plant response rating, Crabgrass (crabgrass; [10]): 7
- B. signalgrass plant response rating (surinam grass; [7]): 5
- Plant response rating, B. signalgrass (surinam grass; [8]): 5
- Plant response rating, B. signalgrass (surinam grass; [9]): 8
- B. signalgrass plant response rating (surinam grass; [3]): 0
- B. signalgrass plant response rating (surinam grass; [4]): 0
- B. signalgrass plant response rating (0 to 10 scale, 0 is no effect, 10 is complete control) (surinam grass; Preemergence, Rate 250 g/ha): 2
- B. signalgrass plant response rating (surinam grass; [5]): 9
- Plant response rating, B. signalgrass (surinam grass; [10]): 7
